Data reported in patent publication US20250066344A1 (BRISTOL-MYERS SQUIBB COMPANY, priority 2021, published 2025).

Molecular target: T1, human RXFP1 (Homo sapiens, UniProt Q9HBX9)
T1 construct: expressed in transfected cells
T1 sequence (Q9HBX9 1-757): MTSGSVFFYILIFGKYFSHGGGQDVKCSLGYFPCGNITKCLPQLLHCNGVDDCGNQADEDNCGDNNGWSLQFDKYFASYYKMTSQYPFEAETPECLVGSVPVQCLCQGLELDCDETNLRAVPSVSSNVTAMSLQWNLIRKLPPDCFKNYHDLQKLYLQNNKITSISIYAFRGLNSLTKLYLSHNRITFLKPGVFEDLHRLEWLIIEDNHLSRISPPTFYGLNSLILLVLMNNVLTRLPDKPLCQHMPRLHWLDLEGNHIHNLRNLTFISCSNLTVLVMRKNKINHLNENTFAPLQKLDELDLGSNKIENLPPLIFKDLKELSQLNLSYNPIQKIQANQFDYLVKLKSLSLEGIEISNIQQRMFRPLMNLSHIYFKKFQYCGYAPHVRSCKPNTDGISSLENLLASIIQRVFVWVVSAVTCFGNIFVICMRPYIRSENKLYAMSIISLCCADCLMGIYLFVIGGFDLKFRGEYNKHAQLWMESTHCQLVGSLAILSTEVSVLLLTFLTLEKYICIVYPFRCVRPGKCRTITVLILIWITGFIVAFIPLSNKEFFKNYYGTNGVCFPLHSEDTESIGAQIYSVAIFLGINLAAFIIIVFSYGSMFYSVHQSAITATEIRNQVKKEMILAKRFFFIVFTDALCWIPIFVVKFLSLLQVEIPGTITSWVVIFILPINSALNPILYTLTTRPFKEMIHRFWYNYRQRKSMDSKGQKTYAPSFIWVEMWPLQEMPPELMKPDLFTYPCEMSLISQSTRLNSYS
Assay: RXFP1 cyclic adenosine monophosphate (cAMP) assay, hRXFP1 HEK293
Assay type: cell-based
Details: HEK293 cells stably expressing human RXFP1; 30 min at room temperature; HTRF cAMP
Protocol: RXFP1 Cyclic Adenosine Monophosphate (cAMP) Assays. Human embryonic kidney cells 293 (HEK293) cells and HEK293 cells stably expressing human RXFP1, were cultured in MEM medium supplemented with 10% qualified FBS, and 300 μg/ml hygromycin (Life Technologies). Cells were dissociated and suspended in assay buffer. The assay buffer was HBSS buffer (with calcium and magnesium) containing 20 mM HEPES, 0.05% BSA, and 0.5 mM IBMX. Cells (3000 cells per well, except 1500 cell per well for HEK293 cells stably expressing human RXFP1) were added to 384-well Proxiplates (Perkin-Elmer). Cells were immediately treated with test compounds in DMSO (2% final) at final concentrations in the range of 0.010 nM to 50 μM. Cells were incubated for 30 min at room temperature. The level of intracellular cAMP was determined using the HTRF HiRange cAMP assay reagent kit (Cisbio) according to manufacturer's instructions. Solutions of cryptate conjugated anti-cAMP and d2 fluorophore-labelled cAMP were made in a supplied lysis buffer separately. Upon completion of the reaction, the cells were lysed with equal volume of the d2-cAMP solution and anti-cAMP solution. After a 1 h room temperature incubation, time-resolved fluorescence intensity was measured using the Envision (Perkin-Elmer) at 400 nm excitation and dual emission at 590 nm and 665 nm. A calibration curve was constructed with an external cAMP standard at concentrations ranging from 2.7 μM to 0.1 μM by plotting the fluorescent intensity ratio from 665 nm emission to the intensity from the 590 nm emission against cAMP concentrations. The potency and activity of a compound to […] cAMP production was then determined by fitting to a 4-parametric logistic equation from a plot of cAMP level versus compound concentrations.
The examples disclosed below were tested in the human RXFP1 (hRXFP) HEK293 cAMP assay described above and found to have agonist activity. Tables 1-3, lists EC50 values in the hRXFP1 HEK293 cAMP assay measured for the examples.
Table A lists EC50 values in the hRXFP1 HEK293 cAMP assay measured for the examples.

Row | Structure (SMILES) | EC50 [nM]
1 | COc1ccc(C(=O)N(C)CCS(C)(=O)=O)cc1C(=O)Nc1cc2c(cc1C(=O)Nc1ccc(F)c(C(F)(F)F)c1)OC(F)(F)O2 [Example 41] | 562
2 | COc1ccc(-c2cc(C(=O)NS(C)(=O)=O)ccc2F)cc1C(=O)Nc1cc2c(cc1C(=O)Nc1ccc(F)c(C(F)(F)F)c1)OC(F)(F)O2 [Example 47, N3-(2,2-difluoro-6-((4-fluoro-3-(trifluoromethyl)phenyl)carbamoyl)benzo[d][1,3]dioxol-5-yl)-6′-fluoro-4-methoxy-N3′-(methylsulfonyl)-[1,1′-biphenyl]-3,3′-dicarboxamide] | 85
3 | COc1cc(F)c(C2=NOC3CC(CO)CC23)cc1C(=O)Nc1cc2c(cc1C(=O)Nc1ccc(F)c(C(F)(F)F)c1)OC(F)(F)O2 (stereo not shown) [Example 102, 2,2-difluoro-N-(4-fluoro-3-(trifluoromethyl)phenyl)-6-(4-fluoro-5-(5-(hydroxymethyl)-3a,5,6,6a-tetrahydro-4H-cyclopenta[d]isoxazol-3-yl)-2-methoxybenzamido) benzo[d][1,3]dioxole-5-carboxamide] | 10.6
4 | COc1ccc(C2=NOC3CC(N)CC23)cc1C(=O)Nc1cc2c(cc1C(=O)Nc1ccc(F)c(C(F)(F)F)c1)OC(F)(F)O2 (single isomer, unassigned) [Example 50, 6-(5-(5-amino-3a,5,6,6a-tetrahydro-4H-cyclopenta[d]isoxazol-3-yl)-2-methoxybenzamido)-2,2-difluoro-N-(4-fluoro-3-(trifluoromethyl)phenyl)benzo[d][1,3]dioxole-5-carboxamide] | 98
5 | COc1ccc(-c2ccc3c(c2)CCNC3)cc1C(=O)Nc1cc2c(cc1C(=O)Nc1ccc(F)c(C(F)(F)F)c1)OC(F)(F)O2 [Example 93, 2,2-difluoro-N-(4-fluoro-3-(trifluoromethyl)phenyl)-6-(2-methoxy-5-(1,2,3,4-tetrahydroisoquinolin-6-yl)benzamido)benzo[d] [1,3]dioxole-5-carboxamide] | 1090
6 | COc1ccc(-c2cc(C(=O)O)ccc2F)cc1C(=O)Nc1cc2c(cc1C(=O)Nc1ccc(F)c(C(F)(F)F)c1)OC(F)(F)O2 [Example 57, 3′-((2,2-difluoro-6-((4-fluoro-3-(trifluoromethyl)phenyl)carbamoyl)benzo[d][1,3]dioxol-5-yl)carbamoyl)-6-fluoro-4′-methoxy-[1,1′-biphenyl]-3-carboxylic acid] | 125
7 | COc1ccc(-c2cc(C(=O)O)ccc2F)cc1C(=O)Nc1cc2c(C)noc2cc1C(=O)Nc1ccc(F)c(C(F)(F)F)c1 [Example 31, 6-fluoro-3′-((6-((4-fluoro-3-(trifluoromethyl)phenyl)carbamoyl)-3-methylbenzo[d]isoxazol-5-yl)carbamoyl)-4′-methoxy-[1,1′-biphenyl]-3-carboxylic acid] | 116
8 | COc1ccc(C2=NOC3(CCN(C(=O)CO)CC3)C2)cc1C(=O)Nc1cc2c(cc1C(=O)Nc1ccc(F)c(C(F)(F)F)c1)OC(F)(F)O2 [Example 68, 2,2-difluoro-N-(4-fluoro-3-(trifluoromethyl)phenyl)-6-(5-(8-(2-hydroxyacetyl)-1-oxa-2,8-diazaspiro[4.5]dec-2-en-3-yl)-2-methoxybenzamido) benzo[d][1,3]dioxole-5-carboxamide] | 173
9 | COc1ccc(C2=NOC(C(C)(C)O)C2)cc1C(=O)Nc1cc2nc(C)sc2cc1C(=O)Nc1ccc(F)c(C(F)(F)F)c1 (stereo not shown) [Example 11, N-(4-fluoro-3-(trifluorometh-yl)phenyl)-5-(5-(5-(2-hydroxypro-pan-2-yl)-4,5-dihydroisox-azol-3-yl)-2-methoxybenz-amido)-2-methylbenzo [d]thiazole-6-carboxamide] | 160
10 | COc1ccc(C2=NOC3(CCN(CC(N)=O)CC3)C2)cc1C(=O)Nc1cc2c(cc1C(=O)Nc1ccc(F)c(C(F)(F)F)c1)OC(F)(F)O2 [Example 69, 6-(5-(8-(2-amino-2-oxoethyl)-1-oxa-2,8-diazaspiro[4.5]dec-2-en-3-yl)-2-methoxybenzamido)-2,2-difluoro-N-(4-fluoro-3-(trifluoromethyl)phenyl) benzo[d][1,3]dioxole-5-carboxamide] | 42
11 | COc1ccc(C2=NOC3C4CC(C(=O)N4)C23)cc1C(=O)Nc1cc2nc(C)sc2cc1C(=O)Nc1ccc(F)c(C(F)(F)F)c1 (stereo not shown) [Example 15, N-(4-fluoro-3-(trifluoro-methyl)phen-yl)-5-(2-meth-oxy-5-(5-oxo-3a,4,5,6,7,7a-hexahydro-4,7-methano-isoxazolo[5,4-c]pyridin-3-yl)benzami-do)-2-methyl-benzo[d]thi-azole-6-car-boxamide] | 180
12 | COc1ccc(C2CC3(C2)CN(C(=O)C(C)(C)O)C3)cc1C(=O)Nc1cc2c(cc1C(=O)Nc1ccc(F)c(C(F)(F)F)c1)OC(F)(F)O2 [Example 97, 2,2-difluoro-N-(4-fluoro-3-(trifluoromethyl)phenyl)-6-(5-(2-(2-hydroxy-2-methylpropanoyl)-2-azaspiro[3.3]heptan-6-yl)-2-methoxybenzamido) benzo[d][1,3]dioxole-5-carboxamide] | 666
13 | COc1ccc(-c2cc([C@H](C)O)on2)cc1C(=O)Nc1cc2c(cc1C(=O)Nc1ccc(F)c(C(F)(F)F)c1)OC(F)(F)O2 [Example 73, (S)-2,2-difluoro-N-(4-fluoro-3-(trifluoromethyl)phenyl)-6-(5-(5-(1-hydroxyethyl)isoxazol-3-yl)-2-methoxybenzamido) benzo[d][1,3]dioxole-5-carboxamide] | 96
14 | COc1ccc(C2CCCN(CC(N)=O)CC2)cc1C(=O)Nc1cc2c(cc1C(=O)Nc1ccc(F)c(C(F)(F)F)c1)OC(F)(F)O2 (stereo not shown) [Example 96, 6-(5-(1-(2-amino-2-oxoethyl)azepan-4-yl)-2-methoxybenzamido)-2,2-difluoro-N-(4-fluoro-3-(trifluoromethyl)phenyl) benzo[d][1,3]dioxole-5-carboxamide] | 339
15 | COc1ccc(-c2cnc3n2CCN(CC(N)=O)C3)cc1C(=O)Nc1cc2c(cc1C(=O)Nc1ccc(F)c(C(F)(F)F)c1)OC(F)(F)O2 [Example 82, 6-(5-(7-(2-amino-2-oxoethyl)-5,6,7,8-tetrahydroimidazo[1,2-a]pyrazin-3-yl)-2-methoxybenzamido)-2,2-difluoro-N-(4-fluoro-3-(trifluoromethyl)phenyl) benzo[d][1,3]dioxole-5-carboxamide] | 144
16 | COc1ccc(S(=O)(=O)N2CCOC[C@@H]2CO)cc1C(=O)Nc1cc2nc(C)sc2cc1C(=O)Nc1ccc(F)c(C(F)(F)F)c1 [Example 14, (S)-N-(4-fluoro-3-(tri-fluoromethyl)-phenyl)-5-(5-((3-(hydroxy-methyl)morph-olino)sulfon-yl)-2-methoxy-benzamido)-2-methylbenzo [d]thiazole-6-carboxamide] | 1400
17 | COc1ccc(-c2cc(S(=O)(=O)NC(C)(C)C)ccc2F)cc1C(=O)Nc1cc2c(cc1C(=O)Nc1ccc(F)c(C(F)(F)F)c1)OC(F)(F)O2 [Example 64, 6-(5′-(N-(tert-butyl)sulfamoyl)-2′-fluoro-4-methoxy-{1,1′-biphenyl]-3-carboxamido)-2,2-difluoro-N-(4-fluoro-3-(trifluoromethyl)phenyl) benzo[d][1,3]dioxole-5-carboxamide] | 37
18 | COc1ccc(C2=NOC3COCC23)cc1C(=O)Nc1cc2c(cc1C(=O)Nc1ccc(F)c(C(F)(F)F)c1)OC(F)(F)O2 (stereo not shown) [Example 79] | 275
19 | COc1ccc(-c2cnc3n2CCNC3)cc1C(=O)Nc1cc2c(cc1C(=O)Nc1ccc(F)c(C(F)(F)F)c1)OC(F)(F)O2 [Example 62, 2,2-difluoro-N-(4-fluoro-3-(trifluoromethyl)phenyl)-6-(2-methoxy-5-(5,6,7,8-tetrahydroimidazo[1,2-a]pyrazin-3-yl)benzamido)benzo[d] [1,3]dioxole-5-carboxamide] | 646
